Where two headings read alike, the source gives them in different places. Each block holds one molecule with its values, some of them ahead of it.
What was measured:
[1] = cited from earlier work
[2] = rabbit, in vivo
Excerpt: Analytes and internal standard (roxithromycine) were extracted from the tissues using acetonitrile and separated by reverse phase liquid chromatography with a C8 column and a gradient mobile phase. […] The unweighed linear model was applied.

[3] = high-dose intraocular, long-term follow-up; cited from earlier work
[4] = implantation of 0.59 mg or 2.1 mg, noninfectious posterior uveitis patients; cited from earlier work
[5] = 0.59 mg intravitreal implant, patients with diabetic macular edema; cited from earlier work
[6] = subtenon administration; cited from earlier work
[7] = single oral administration of 7.5 mg dexamethasone

- Concentration in choroid, mean ([2]; 1 days): 12 nmol/g
- Concentration in retina, mean ([2]; 1 days): 7 nmol/g
- Concentration in choroid, mean ([2]; 7 days): 12 nmol/g
- Concentration in retina, mean ([2]; 7 days): 11 nmol/g
- Concentration in choroid, mean ([2]; 14 days): 9 nmol/g
- Concentration in retina, mean ([2]; 14 days): 6 nmol/g
- Concentration in choroid, mean ([2]; 28 days): 4 nmol/g
- Concentration in retina, mean ([2]; 28 days): 4 nmol/g
- Concentration in aqueous humor, mean ([2]; 60 days): 0 nmol/g
- Concentration in choroid, mean ([2]; 60 days): 3 nmol/g
- Concentration in retina, mean ([2]; 60 days): 2 nmol/g
SMILES: C[C@@H]1C[C@H]2[C@@H]3CCC4=CC(=O)C=C[C@]4(C)[C@@]3(F)[C@@H](O)C[C@]2(C)[C@@]1(O)C(=O)CO [D, dexamethasone]
- Dexamethasone penetration into the vitreous humour ([1]; repeated topical application: 1 drop of 0.1% dexamethasone phosphate drops hourly for 10 hours): less than 2 ng/ml
- Serum level [1, 7]: 60 ng/mL
- Vitreous level [1, 7]: 5 ng/mL

SMILES: CC1(C)O[C@@H]2C[C@H]3[C@@H]4C[C@H](F)C5=CC(=O)C=C[C@]5(C)[C@@]4(F)[C@@H](O)C[C@]3(C)[C@]2(C(=O)CO)O1 [fluocinolone acetonide]
- Eyes developing elevated IOP [3]: 100%
- Eyes requiring implant removal [3]: approximately 60%
- Eyes showing nonischemic central retinal vein occlusion [3]: 30%
- Augmentation of the need of IOP lowering agents [4]: 5 fold
- Serious cataract progression [5]: 43.1%
- Serious intraocular pressure rise [5]: 8.6%

SMILES: CC1(C)O[C@@H]2C[C@H]3[C@@H]4CCC5=CC(=O)C=C[C@]5(C)[C@@]4(F)[C@@H](O)C[C@]3(C)[C@]2(C(=O)CO)O1 [triamcinolone acetonide]
- Patients with intraocular pressure rise [6]: 21%
